Values joined by “and” are separate entries in the source; they are usually repeats but may differ in a detail not shown here. Equal entries are not always repeated.
Tests used:
human mGluR4 (hmGluR4) = biological target: T1, human mGluR4 (hmGluR4) (Homo sapiens, UniProt Q14833); assay: Calcium assay EC50 determination, positive allosteric modulator activity on hmGluR4 transiently over-expressed in HEK-293 cells; type: cell-based; details: PAM mode with EC20 glutamate; hmGluR4 in HEK-293 cells; intracellular calcium (Fluo4AM); read-out: mGluR4 positive allosteric modulator activity, half maximal effective concentration (EC50)
T1 construct: expressed in transfected cells; host or cells: HEK-293 cells, transient co-transfection by electroporation
How it was run: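 HEK-293 cells transiently co-transfected with hmGluR4, chimeric G protein and glutamate transporters; Fluo4AM calcium read (ex 485/em 525 nm) on FLIPR Tetra. Compound alone 10 min for agonism, then EC20 glutamate with 3 min recording for PAM activity, versus buffer or EC20 glutamate basal.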

T1 sequence (Q14833 33-912): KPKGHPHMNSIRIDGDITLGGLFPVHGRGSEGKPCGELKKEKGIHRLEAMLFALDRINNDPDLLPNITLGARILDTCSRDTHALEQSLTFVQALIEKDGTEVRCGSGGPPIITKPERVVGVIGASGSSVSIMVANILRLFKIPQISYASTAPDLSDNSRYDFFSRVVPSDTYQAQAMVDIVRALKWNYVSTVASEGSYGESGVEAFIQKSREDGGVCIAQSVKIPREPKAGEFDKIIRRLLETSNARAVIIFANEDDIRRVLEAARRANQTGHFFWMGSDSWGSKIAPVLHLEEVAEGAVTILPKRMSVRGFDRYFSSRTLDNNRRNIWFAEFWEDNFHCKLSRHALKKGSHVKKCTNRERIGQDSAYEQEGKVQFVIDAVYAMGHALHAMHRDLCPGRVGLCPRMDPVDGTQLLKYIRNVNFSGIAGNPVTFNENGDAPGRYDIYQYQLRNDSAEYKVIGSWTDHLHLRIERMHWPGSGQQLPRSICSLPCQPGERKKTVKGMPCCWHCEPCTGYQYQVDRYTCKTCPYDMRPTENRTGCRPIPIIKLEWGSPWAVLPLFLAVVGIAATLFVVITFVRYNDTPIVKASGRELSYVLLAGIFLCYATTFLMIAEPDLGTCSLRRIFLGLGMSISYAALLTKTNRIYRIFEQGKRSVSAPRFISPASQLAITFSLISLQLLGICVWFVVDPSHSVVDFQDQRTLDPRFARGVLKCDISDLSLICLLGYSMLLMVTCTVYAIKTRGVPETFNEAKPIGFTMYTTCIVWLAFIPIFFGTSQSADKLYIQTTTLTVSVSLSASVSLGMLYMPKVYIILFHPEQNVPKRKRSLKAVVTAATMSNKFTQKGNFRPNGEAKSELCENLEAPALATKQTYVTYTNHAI

| Compound | EC50 (human mGluR4 (hmGluR4)) | melting point |
| --- | --- | --- |
| COCCOc1ccc2nc(-c3cc4sccc4cn3)[nH]c(=O)c2c1 [Compound 36, 6-(2-Methoxy-ethoxy)-2-thieno[3,2-c]pyridin-6-yl-3H-quinazolin-4-one] | > 10 µM | 209 to 213 °C |
| CCC(=O)N1CC(Oc2cc(C)c3nc(-c4cc5ccsc5cn4)[nH]c(=O)c3c2)C1 [Compound 116, 8-methyl-6-(1-propanoylazetidin-3-yl)oxy-2-thieno[2,3-c]pyridin-5-yl-3H-quinazolin-4-one] | 0.1 to 1 µM | 230 to 240 °C |
| Cc1cc(O[C@@H](C)C2CCOCC2)cc2c(=O)[nH]c(-c3cc(C(F)(F)F)ccn3)nc12 [Compound 111-S, S-8-Methyl-6-[1-(tetrahydro-pyran-4-yl)-ethoxy]-2-(4-trifluoromethyl-pyridin-2-yl)-3H-quinazolin-4-one] | 0.1 to 1 µM | 120 to 132 °C |
| Cc1cc(CN2CCCC2)cc2c(=O)[nH]c(-c3cc4sccc4cn3)nc12.Cl [Compound 139, 8-Methyl-6-(pyrrolidin-1-ylmethyl)-2-thieno[3,2-c]pyridin-6-yl-3H-quinazolin-4-one hydrochloride] | 1 to 10 µM | > 250 °C |
| CS(=O)(=O)c1ccc(CCCOc2ccc3nc(-c4cc5ccsc5cn4)[nH]c(=O)c3c2)cc1 [Compound 60, 6-[3-(4-Methanesulfonyl-phenyl)-propoxy]-2-thieno[2,3-c]pyridin-5-yl-3H-quinazolin-4-one] | 0.1 to 1 µM | 236 to 237 °C |
| Cl.O=c1[nH]c(-c2cc3ccccc3cn2)nc2ccc(OCCCc3ccncc3)cc12 [Compound 2, 2-Isoquinolin-3-yl-6-(3-pyridin-4-yl-propoxy)-3H-quinazolin-4-one hydrochloride] | 1 to 10 µM | > 250 °C |
| Cc1cc(CCN2CCS(=O)(=O)CC2)cc2c(=O)[nH]c(-c3cc4sccc4cn3)nc12 [Compound 149, 6-(2-(1,1-Dioxidothiomorpholino)ethyl)-8-methyl-2-(thieno[3,2-c]pyridin-6-yl)quinazolin-4(3H)-one] | ≤ 0.1 µM | 200 to 212 °C |
| CCC(=O)N1CCC(COc2ccc3nc(-c4cc5ccsc5cn4)[nH]c(=O)c3c2)CC1 [Compound 48, 6-(1-Propionyl-piperidin-4-ylmethoxy)-2-thieno[2,3-c]pyridin-5-yl-3H-quinazolin-4-one] | 0.1 to 1 µM | 234 to 239 °C |
| Cc1cc(CCN2CCN(C)C(=O)C2)cc2c(=O)[nH]c(-c3cc(C(F)(F)F)ccn3)nc12.Cl [Compound 144, 8-Methyl-6-[2-(4-methyl-3-oxo-piperazin-1-yl)ethyl]-2-[4-(trifluoromethyl)-2-pyridyl]-3H-quinazolin-4-one hydrochloride] | 0.1 to 1 µM | 148 to 150 °C |
| Cl.O=c1[nH]c(-c2cc(C(F)(F)F)ccn2)nc2ccc(OCCCc3ccncc3)nc12 [Compound 67, 6-(3-Pyridin-4-yl-propoxy)-2-(4-trifluoromethyl-pyridin-2-yl)-3H-pyrido[3,2-d]pyrimidin-4-one hydrochloride] | 0.1 to 1 µM | > 250 °C |
| Cc1cc(CCN2CC3(COC3)C2)cc2c(=O)[nH]c(-c3cc4sccc4cn3)nc12 [Compound 146, 8-Methyl-6-[2-(2-oxa-6-azaspiro[3.3]heptan-6-yl)ethyl]-2-thieno[3,2-c]pyridin-6-yl-3H-quinazolin-4-one] | 0.1 to 1 µM | 160 to 200 °C |
| COCCN(C)CCc1cc(C)c2nc(-c3cc4sccc4cn3)[nH]c(=O)c2c1.Cl [Compound 148, 6-(2-((2-Methoxyethyl)(methyl)amino)ethyl)-8-methyl-2-(thieno[3,2-c]pyridin-6-yl)quinazolin-4(3H)-one hydrochloride] | 1 to 10 µM | 149 to 162 °C |
| Cl.O=c1[nH]c(-c2cc3sccc3cn2)nc2ccc(OCCCc3ccncc3)cc12 [Compound 3, 6-(3-Pyridin-4-yl-propoxy)-2-thieno[3,2-c]pyridin-6-yl-3H-quinazolin-4-one hydrochloride] | 0.1 to 1 µM and < 1 µM | > 250 °C |
| Cl.O=c1[nH]c(-c2cc3ccsc3cn2)nc2ccc(OCCCc3cnccn3)cc12 [Compound 61, 6-(3-Pyrazin-2-yl-propoxy)-2-thieno[2,3-c]pyridin-5-yl-3H-quinazolin-4-one hydrochloride] | 0.1 to 1 µM | 230 to 240 °C |
| Cc1cc(OC2CCC(=O)N(C)C2)cc2c(=O)[nH]c(-c3cc4cccn4cn3)nc12 (centres unmarked) [Compound 118, 8-Methyl-6-[(1-methyl-6-oxo-3-piperidyl)oxy]-2-pyrrolo[1,2-c]pyrimidin-3-yl-3H-quinazolin-4-one] | ≤ 0.1 µM | 220 to 230 °C |
| COCCN(C)Cc1cc(C)c2nc(-c3cc4sccc4cn3)[nH]c(=O)c2c1.Cl [Compound 151, 6-(((2-Methoxyethyl)(methyl)amino)methyl)-8-methyl-2-(thieno[3,2-c]pyridin-6-yl)quinazolin-4(3H)-one hydrochloride] | 0.1 to 1 µM | 205 to 215 °C |

| Compound | EC50 (human mGluR4 (hmGluR4)) | melting point |
| --- | --- | --- |
| Cc1cc(OCC2CCN(C)C(=O)C2)cc2c(=O)[nH]c(-c3cc4ccsc4cn3)nc12 (centres unmarked) [Compound 130, 8-Methyl-6-(1-methyl-2-oxo-piperidin-4-ylmethoxy)-2-thieno[2,3-c]pyridin-5-yl-3H-quinazolin-4-one] | ≤ 0.1 µM | > 250 °C |
| Cc1cc(OC2CCC(=O)N(C)C2)cc2c(=O)[nH]c(-c3cc(C(F)(F)F)ccn3)nc12 (centres unmarked) [Compound 136, 8-Methyl-6-(1-methyl-6-oxo-piperidin-3-yloxy)-2-(4-trifluoromethyl-pyridin-2-yl)-3H-quinazolin-4-one] | ≤ 0.1 µM | > 250 °C |
| Cc1cc(CN2CCC3(CC2)COC3)cc2c(=O)[nH]c(-c3cc4sccc4cn3)nc12 [Compound 155, 8-Methyl-6-(2-oxa-7-azaspiro[3.5]nonan-7-ylmethyl)-2-thieno[3,2-c]pyridin-6-yl-3H-quinazolin-4-one] | ≤ 0.1 µM | > 250 °C |
| Cc1cc(CCN2CCOC(C)(C)C2)cc2c(=O)[nH]c(-c3cc(C(F)(F)F)ccn3)nc12.Cl [Compound 160, 6-(2-(2,2-dimethylmorpholino)ethyl)-8-methyl-2-(4-(trifluoromethyl)pyridin-2-yl)quinazolin-4(3H)-one hydrochloride] | ≤ 0.1 µM | 106 to 116 °C |
| Cl.O=c1[nH]c(-c2ccccn2)nc2ccc(OCCCc3ccncc3)cc12 [Compound 5, 2-Pyridin-2-yl-6-(3-pyridin-4-yl-propoxy)-3H-quinazolin-4-one hydrochloride] | 0.1 to 1 µM and < 1 µM | > 250 °C |
| Cc1cc(CCN2CCOCC2)cc2c(=O)[nH]c(-c3cc4sccc4cn3)nc12.Cl [Compound 123, 8-Methyl-6-(2-morpholin-4-yl-ethyl)-2-thieno[3,2-c]pyridin-6-yl-3H-quinazolin-4-one hydrochloride] | ≤ 0.1 µM | > 250 °C |
| Cc1cc(CCN2CCCOCC2)cc2c(=O)[nH]c(-c3cnc4ccsc4c3)nc12.Cl [Compound 122, 8-Methyl-6-(2-[1,4]oxazepan-4-yl-ethyl)-2-thieno[3,2-b]pyridin-6-yl-3H-quinazolin-4-one hydrochloride] | ≤ 0.1 µM | > 250 °C |
| Cc1cc(CN2CCCCC2)cc2c(=O)[nH]c(-c3cc4ccsc4cn3)nc12.Cl [Compound 131, 8-Methyl-6-(1-piperidylmethyl)-2-thieno[2,3-c]pyridin-5-yl-3H-quinazolin-4-one hydrochloride] | 0.1 to 1 µM | 233 to 240 °C |
| Cc1cc(N2CCC3(CCOCC3)CC2)cc2c(=O)[nH]c(-c3cc4sccc4cn3)nc12 [Compound 120, 8-Methyl-6-(3-oxa-9-azaspiro[5.5]undecan-9-yl)-2-(thieno[3,2-c]pyridin-6-yl)quinazolin-4(3H)-one] | ≤ 0.1 µM | > 250 °C |
| Cc1cc(CN2CCN(C)C(=O)C2)cc2c(=O)[nH]c(-c3cc(C(F)(F)F)ccn3)nc12.Cl [Compound 161, 8-Methyl-6-((4-methyl-3-oxopiperazin-1-yl)methyl)-2-(4-(trifluoromethyl)pyridin-2-yl)quinazolin-4(3H)-one hydrochloride] | 0.1 to 1 µM | > 250 °C |
| Cl.O=c1[nH]c(-c2cc3sccc3cn2)nc2ccc(OCCN3CCOCC3)cc12 [Compound 35, 6-(2-Morpholin-4-yl-ethoxy)-2-thieno[3,2-c]pyridin-6-yl-3H-quinazolin-4-one hydrochloride] | 1 to 10 µM | > 250 °C |
| Cc1cc(CCN2CC3(COC3)C2)cc2c(=O)[nH]c(-c3cc4ccsc4cn3)nc12 [Compound 145, 8-Methyl-6-[2-(2-oxa-6-azaspiro[3.3]heptan-6-yl)ethyl]-2-thieno[2,3-c]pyridin-5-yl-3H-quinazolin-4-one] | 1 to 10 µM | 220 to 225 °C |
| Cl.O=c1[nH]c(-c2ccc(C(F)(F)F)cn2)nc2ccc(OCCCc3ccncc3)cc12 [Compound 10, 6-[3-(4-pyridyl)propoxy]-2-[5-(trifluoromethyl)-2-pyridyl]-3H-quinazolin-4-one hydrochloride] | 0.1 to 1 µM | > 250 °C |
| Cc1cc(CN2CCSCC2)cc2c(=O)[nH]c(-c3cc4ccsc4cn3)nc12.Cl [Compound 137, 8-Methyl-2-thieno[2,3-c]pyridin-5-yl-6-(thiomorpholinomethyl)-3H-quinazolin-4-one hydrochloride] | ≤ 0.1 µM | > 250 °C |
| Cl.O=c1[nH]c(-c2cc(C(F)(F)F)ccn2)nc2c(Br)cc(CCN3CCOCC3)cc12 [Compound 159, 8-Bromo-6-(2-morpholinoethyl)-2-(4-(trifluoromethyl)pyridin-2-yl)quinazolin-4(3H)-one hydrochloride] | ≤ 0.1 µM | > 250 °C |
